Literature values, collected in patent publication US20240350592A1, “COMPOSITION AND METHODS OF TREATMENT USING […]-ENHANCED SUPPLEMENTATION” (Xygenyx Inc., priority 2023, published 2024).
Square brackets hold non-standard residues; d marks the D form. Peptide text beside a SMILES is read from it. Cit = NC(=O)NCCC[C@H](N)C(=O)O

What was measured:
[1] = system: depression; conditions: patients who did not respond to traditional antidepressant medications
[2] = single penetration enhancer
[3] = system: wide dynamic range neurons in the ventroposterolateral nucleus of the thalamus
[4] = in vivo
[5] = system: skin; conditions: topical, concentrations 0.5-5%
[6] = system: skin; conditions: topical formulations; within four weeks of treatment
[7] = system: neurodegenerative diseases such as Alzheimer's Syndrome or dementia; conditions: dietary supplementation, doses up to 400 IU/day; controlled trials
[8] = system: coronary disease; conditions: dietary supplementation, doses up to 400 IU/day
[9] = system: F2-isoprostane; conditions: doses of 1600-3200 IU/day
[10] = system: rheumatoid arthritis; conditions: arthritic subjects
[11] = compared to α-tocopherol taken as 1.0
[12] = even when dietary intake occurs in equal portions
[13] = system: markers of inflammation; conditions: individuals with metabolic syndrome
[14] = in vivo; remark: listed apart in the source

## CN1c2c([nH]c(N)nc2=O)NCC1CNc1ccc(C(=O)N[C@@H](CCC(=O)O)C(=O)O)cc1 (stereo partly shown) [5-MTHF, 5-methyltetrahydrofolate]
[1]
  symptoms of depression: improved

## CC(C)[C@@H]1CC[C@@H](C)C[C@H]1O [Menthol]
[2]
  factor of increase of transdermal drug uptake: ≥ 10

## C/C(=C\CO)CCC[C@H](C)CCC[C@H](C)CCCC(C)C [Phytol]
other
  solubility in water: nearly insoluble in water

## CCCCCc1cc(O)c2c(c1)OC(C)(C)C1CCC(C)=CC21 (stereo not shown) [THC, Δ-9-tetrahydrocannabinol]
[3]
  power in mediating pain compared to morphine: ten times more powerful than morphine

## CCNC(=O)CC[C@H](N)C(=O)O [Theanine]
[4]
  dose generally considered safe and well-tolerated: up to 400 mg per day

## C=CCCCCCCCCC(=O)N[C@@H](Cc1ccccc1)C(=O)O [UP, Undecylenoyl phenylalanine]
[5]
  time of treatment to skin lightening effects: ≥ 7 days

## CC12CCC(CC1)C(C)(C)O2 [eucalyptol, 1,8-epoxy-p-menthane]
[2]
  factor of increase of transdermal drug uptake: more than 10

## CC[C@H](C)[C@H](NC(=O)[C@H](CC(=O)O)NC(=O)[C@@H](N)CCCCN)C(=O)N[C@@H](CCCNC(N)=O)C(N)=O [tripeptide-10 citrulline, Tripeptide-10 citrulline] (H-KDI[Cit]-NH2)
[6]
  improvement of suppleness: ≤ 54%

## Cc1c(C)c2c(c(C)c1O)CC[C@@](C)(CCC[C@H](C)CCC[C@H](C)CCCC(C)C)O2 [α-tocopherol]
[7]
  reduction of the risk of developing neurodegenerative diseases: ≤ 24%
[8]
  reduction of the risk of coronary disease: up to 34%
[9]
  blood plasma concentration of F2-isoprostane: significantly lower

## C=C1CC/C=C(\C)CC[C@@H]2[C@@H]1CC2(C)C [β-caryophyllene]
[10]
  number of circulating and articular leukocytes: reduced
  swelling of joints and lymph nodes: reduced

## Cc1cc(O)c(C)c2c1O[C@](C)(CCC[C@H](C)CCC[C@H](C)CCCC(C)C)CC2 [β-tocopherol]
[11]
  relative biological activity: 0.5

## Cc1c(O)cc2c(c1C)O[C@](C)(CCC[C@H](C)CCC[C@H](C)CCCC(C)C)CC2 [γ-tocopherol]
[12]
  concentration in vivo relative to α-tocopherol: roughly 10%
[11]
  relative biological activity: 0.1

## Cc1cc(O)cc2c1O[C@](C)(CCC[C@H](C)CCC[C@H](C)CCCC(C)C)CC2 [δ-tocopherol]
[13]
  markers of inflammation in the blood: reduced
[11]
  relative biological activity: 0.03

## HGH: hormone comprising a peptide chain that is synthesized in the pituitary gland
[14]
  biological half-life: 10-20 minutes
